In publication PMC6738921, “Polyamine biosynthesis in Xenopus laevis: the xlAZIN2/xlODC2 gene encodes a lysine/ornithine decarboxylase” (PLoS ONE, 2019):
Like-named read-outs stand apart in the source and are kept apart here. Values belong to the molecule of their own block, whether it stands above or below them.

Tests used:
Settings in all cases: anti-Flag purified enzyme, less than 10% of activity recovered on purification, assay buffer: 0.1 mM pyridoxal phosphate, 1 mM dithiothreitol, 37°C
[1] = target: T1, xlODC1 (Xenopus laevis, UniProt P27120); test: decarboxylase activity, Michaelis-Menten fit; type: biochemical
T1 construct: gene odc1-a
T1 sequence (P27120 1-460): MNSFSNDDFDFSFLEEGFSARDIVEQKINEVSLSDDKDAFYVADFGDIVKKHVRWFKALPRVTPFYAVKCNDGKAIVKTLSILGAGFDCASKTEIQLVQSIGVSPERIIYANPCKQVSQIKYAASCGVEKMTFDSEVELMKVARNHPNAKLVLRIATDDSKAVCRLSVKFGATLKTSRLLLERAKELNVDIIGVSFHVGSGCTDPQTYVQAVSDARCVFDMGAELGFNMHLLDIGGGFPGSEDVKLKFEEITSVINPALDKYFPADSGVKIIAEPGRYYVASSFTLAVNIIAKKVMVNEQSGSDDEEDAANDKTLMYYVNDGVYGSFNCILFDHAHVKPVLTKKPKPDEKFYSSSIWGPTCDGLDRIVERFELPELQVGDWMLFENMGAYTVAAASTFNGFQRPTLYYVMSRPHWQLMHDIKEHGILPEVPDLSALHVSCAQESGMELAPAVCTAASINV

[2] = substrate: NCCCC[C@H](N)C(=O)O; test: decarboxylase activity, Michaelis-Menten fit; type: biochemical, Xenopus laevis
[3] = substrate: NCCC[C@H](N)C(=O)O; test: purified protein

Km ([1]; unit inferred, mM from, read-out: Km^Lys): 34.9 ± 6.1 mM
Molecule: NCCCC[C@H](N)C(=O)O [L-lysine]

Km ([1]; read-out: Km^Orn): 0.103 ± 0.027 mM
Molecule: NCCC[C@H](N)C(=O)O [L-ornithine]

B1: xlAZIN2 (xlODC2, xlLDC, xlLODC) (Xenopus laevis) (protein)
chain: MQGYIQESDFNLVEEGFLARDLMEEIINEVSQTEDRDAFFVADLGDVVRKHLRFLKALPRVKPFYAVKCNSSKGVVKILAELGAGFDCASKTEIELVQDVGVAPERIIYANPCKQISQIKYAAKNGVQMMTFDNEVELSKVSRSHPNARMVLRIATDDSKSSARLSVKFGAPLKSCRRLLEMAKNLSVDVIGVSFHVGSGCTDSKAYTQAISDARLVFEMASEFGYKMWLLDIGGGFPGTEDSKIRFEEIAGVINPALDMYFPESSDVQIIAEPGRYYVASAFSLAVNVIAKKEVEHSVSDDEENESSKSIMYYVNDGVYGSFNCLVFDHAHPKPILHKKPSPDQPLYTSSLWGPTCDGLDQIAERVQLPELHVGDWLLFENMGAYTIAASSNFNGFQQSPVHYAMPRAAWKAVQLLQRGLQQTEEKENVCTPMSCGWEISDSLCFTRTFAATSII
Km [2]: 807 ± 102 µM | Km [3]: 3080 ± 810 µM
